Test results taken from US6124337A, “Methods and formulations for modulating the human sexual response” (priority 1999, dated 2000).
Where a name gives a salt, the structure may show the parent alone.

What was measured:
male erectile ability = assay: Single blind trial of rapidly dissolving oral formulation on male erectile ability; format: in vivo, human; conditions: 40 mg dose
Procedure: In order to test the ability of a rapidly dissolving oral formulation of phentolamine mesylate on erectile ability, a single blind trial was conducted.
All patients had impotence of organic etiology. Patients were selected for inclusion in the trial based medical history and physical examination with a duration of impotence of less than 3-4 years. Each patient was given two tablets: a rapidly dissolving tablet containing 40 mg of phentolamine mesylate (see Table 1), and a placebo tablet lacking phentolamine mesylate.
Patients were asked to take one tablet 20 to 30 minutes before attempting coitus. One or more days after using the first tablet, the patients repeated the process with the second tablet.
Patients were advised not to consume alcohol prior to using the tablets and were told not to expect erection without sexual stimulation. […] Patients were also asked to report side effects.

impotentia erectionis = conditions: buccal, 100 I.U. three times a day for 14 days; cited from earlier work

SMILES | Success in improving erectile ability (male erectile ability) | Patients with improvement of impotentia erectionis (impotentia erectionis)
Cc1ccc(N(CC2=NCCN2)c2cccc(O)c2)cc1 [phentolamine mesylate] | significant success | 
CC[C@H](C)[C@@H]1NC(=O)[C@H](Cc2ccc(O)cc2)NC(=O)[C@@H](N)CSSC[C@@H](C(=O)N2CCC[C@H]2C(=O)N[C@@H](CC(C)C)C(=O)NCC(N)=O)NC(=O)[C@H](CC(N)=O)NC(=O)[C@H](CCC(N)=O)NC1=O [oxytocin] |  | 12 of the 16
